In US20040024048A1, “Medicaments for treating dementia” (priority 2000, published 2004):
Where two headings read alike, the source gives them in different places.

How the values were obtained:
[1] = test system: patients with clinical manifestations of dementing deficits; experiment: mini-mental state examination (MMSE) in dementia patients; type: in vivo, human
Description: The mini-mental state examination test was published by Marshall Folstein in 1975 and was originally intended as a test to differentiate cognitive functions (Folstein et al., 1975). Because the test is short, it is now used as screening test in studies for establishing inclusion/exclusion criteria. The test covers orientation, attention, short- and medium-term memory, word-finding, reading, writing, and in addition a command to perform an action must be obeyed. The tasks in the test are designed so that they can normally be solved without difficulty by people without cognitive impairment. The maximum score achievable is 30, and a score of less than 24 indicates a dementing disorder. The following levels are generally differentiated (Zec et al., 1992).
(§1) Patients with clinical manifestations of dementing deficits and suspected brain damage based on Alzheimer's dementia or vascular dementia or a similar suspected diagnosis were treated with medicines to improve the symptomatic cognitive deficits (nootropics). Since all the active ingredients currently available in the dementia sector provide only marginal improvements, it was justified, despite the disappointing first study, to administer α-lipoic acid in high dose to patients on the basis of this basic therapy. The effect of the therapy was assessed using standardized clinical dementia assessment scales which are usual now and which are distinguished by high reliability. This comprises the mini-mental state examination (MMSE) or the Alzheimer's disease assessment scale (ADAS). The advantage of these clinical instruments is that the severity of the dementia can be established reliably, irrespective of the organic cerebral basis, which is usually not unambiguous, of the clinical picture of dementia.

aging animals = settings: cited from earlier work
[2] = test system: patients with HIV dementia; settings: cited from earlier work
[3] = test system: patients with clinical manifestations of dementing deficits; experiment: Alzheimer's disease assessment scale (ADAS / ADAS-Cog) in dementia patients; type: in vivo, human
Description: A further test for establishing the neuropsychological status of a dementia patient is the “Alzheimer's Disease Assessment Scale-Cognitive Subscale (ADAS-Cog)” (Rosen et al., 1984). The Alzheimer Disease Assessment Scale was invented by W. G. Rosen, R. C. Mohs, 1988, Rosen and K. L. Davis, 1984, and the German version was produced by R. Ihl and G. Weyer, Beltz Test 1993. The ADAS was not originally intended to be a diagnostic instrument, but separates dementing people from healthy control subjects of the same age very well. The following criteria can be distinguished in the ADAS: cognitive area, noncogn. area, memory, orientation/praxis, motor function, depression, psychotic symptoms, concentration/cooperation, speech. In the version used here, speech is included in the cognitive area, and thus a max. minus score of 70 is possible. It was possible to show for people with Alzheimer-type dementia that the complete scale increases by 5 to 7 points on average over the course of 12 months, and by 14 points on average over the course of 24 months. The items in the cognitive part are most sensitive in this regard.
as §1

[4] = test system: patients with clinical manifestations of dementing deficits; experiment: Global Deterioration Scale (GDS) in dementia patients; type: in vivo, human; settings: GDS 4/5 at start
Description: Standardized methods are developed for routine dementia screening, e.g. the mini-mental state examination (MMSE) or the Alzheimer's Disease Assessment Scale (ADAS). Further methods would be: GDS: Global Deterioriation Scale (Reisberg et al., 1982), FAST: Functional Assessment Staging (Reisberg, 1988).

aged rats = settings: high dose, cited from earlier work
[5] = test system: patients with sclerotic dementia and involutional depressions; settings: 25-50 mg, patent calls findings unconfirmed and misleading; cited from earlier work
[6] = Patient 1, Alzheimer's dementia, 4 weeks additional 600 mg a-lipoic acid on Aricept
[7] = Patient 2, additional 600 mg lipoic acid over 7 months on Aricept, Remotiv, vitamin E
[8] = Patient 3, additional 600 mg lipoic acid on Aricept and vitamin E
[9] = Patient 4, 600 mg lipoic acid for 8 months on Aricept, aspirin, vitamin E
[10] = Patient 6, 600 mg lipoic acid on basic therapy
[11] = Patient 11, dementia plus parkinsonism, 600 mg lipoic acid 4 months on Aricept and Madopar T
[12] = Patient 8, 600 mg lipoic acid 4 weeks, Aricept 8 weeks
[13] = patients with HIV dementia, administration of α-lipoic acid
[14] = Patient 2, Alzheimer's dementia, Aricept 5/10 mg/day for 12 months, before lipoic acid
[15] = Patient 3, Alzheimer's dementia, Aricept 5 mg/day 13 months plus 600 mg vitamin E
[16] = Patient 4, Alzheimer's dementia, Aricept 5/10 mg/day 19 months, 300 mg aspirin and 600 mg vitamin E 20 months

Compound: CCN(C)C(=O)Oc1cccc([C@H](C)N(C)C)c1 [Exelon]
- MMSE score decrease ([1]; Patient 10, frontal cerebral atrophy, Exelon 6 mg/day for 9 months): 5

Compound: O=C(O)CCCCC1CCSS1 (stereo not drawn) [R(+)-α-lipoic acid]
- influence on motor functions (aging animals): beneficial influence

Compound: C#CCN(C)[C@H](C)Cc1ccccc1 [deprenyl]
- effects on cognitive performance ([2]; demented patients, active control drug in the HIV dementia study): confirmed its known beneficial effects

Compound: O=C(O)CCCCC1CCSS1 (stereo not drawn) [α-lipoic acid, 1,2-dithiolane-3-pentanoic acid]
- MMSE score improvement [1, 6]: 2
- improvement in the MMSE score [1, 7]: 1 point
- MMSE score improvement [1, 8]: 1
- improvement in the MMSE score [1, 9]: 2
- MMSE score improvement ([1]; Patient 5, first 3 months of 600 mg lipoic acid on basic therapy): 1
- course of the dementia (MMSE) since lipoic acid [1, 10]: no further deterioration
- improvement in the MMSE score ([1]; Patient 7, after two months of 600 mg lipoic acid on Aricept and vitamin E): 1
- MMSE score now ([1]; Patient 8, Alzheimer's dementia, 600 mg lipoic acid 4 weeks, Aricept 8 weeks, score 18 at start of lipoic acid): 20
- improvement in the MMSE score ([1]; Patient 9, Lewy body dementia, 600 mg lipoic acid on Aricept and Madopar): 3
- improvement in the MMSE score ([1]; Patient 10, frontal cerebral atrophy, additional 600 mg lipoic acid on Exelon): 1
- MMSE score course [1, 11]: remained at the same level
- MMSE score reached ([1]; Patient 12, frontal cerebral atrophy, 600 mg lipoic acid 4 weeks, Aricept 8 weeks, other drugs, from 16): 18
- ADAS score decrease [3, 6]: 6
- ADAS score reached ([3]; Patient 1, Alzheimer's dementia, after 4 weeks additional 600 mg a-lipoic acid on Aricept): 18
- improvement in the ADAS score [3, 7]: 11 points
- ADAS score recovery [3, 8]: 2
- ADAS score went back [3, 9]: 3 points
- ADAS score loss [3, 10]: 8
- ADAS course ([3]; Patient 7, 600 mg lipoic acid on Aricept and vitamin E): remains constant
- ADAS score decline [3, 12]: 3
- ADAS score reached [3, 12]: 35 error points
- ADAS score course [3, 11]: remained at the same level
- ADAS score decrease ([3]; Patient 12, frontal cerebral atrophy, 600 mg lipoic acid 4 weeks, Aricept 8 weeks): 5
- ADAS score reached ([3]; Patient 12, frontal cerebral atrophy, 600 mg lipoic acid 4 weeks, Aricept 8 weeks, from 41 points): 36 points
- GDS reached (improved) ([4]; Patient 3, additional 600 mg lipoic acid): 4
- GDS level reached (improved by one level) ([4]; Patient 5, 600 mg lipoic acid): 4
- GDS reached (improved) ([4]; Patient 6, 600 mg lipoic acid): 4
- effect on the cognitive function ([2]; patients with HIV dementia, 600 mg α-lipoic acid monotherapy): no effect whatsoever
- learning [2, 13]: deterioration in learning
- verbal learning ability and memory [2, 13]: declined significantly
- memory performance (aged rats; aged rats): improvement in memory performance
- memory performance (aged rats; young animals): not in young animals
- manifestations of dementia [5]: improvement of manifestations of dementia

Compound: COc1cc2c(cc1OC)C(=O)C(CC1CCN(Cc3ccccc3)CC1)C2 (centres unmarked) [Aricept, donepezil]
- deterioration of cognitive status in the MMSE ([1]; Patient 1, Alzheimer's dementia, Aricept 5/10 mg/day for 4 months, before lipoic acid): 1 point
- deterioration in the MMSE score [1, 14]: 7
- MMSE score deterioration [1, 15]: 2
- decrease in the MMSE score [1, 16]: 5
- deterioration in the MMSE score ([1]; Patient 5, Alzheimer's dementia, Aricept 5/10 mg/day 24 months with Accuzide 20, Akatinol, 600 mg vitamin E): 6
- deterioration in the MMSE score ([1]; Patient 6, Alzheimer's dementia, Aricept 5/10 mg/day 13 months with aspirin 100, Rökan, 600 mg vitamin E): 5
- deterioration in the MMSE score ([1]; Patient 7, Alzheimer's dementia, Aricept 5 mg/day 6 months plus 600 mg vitamin E): 6
- MMSE score reached ([1]; Patient 9, Lewy body dementia, Aricept 5 mg 12 months, Madopar T and Madopar Depot, before lipoic acid): 17
- ADAS score reached (deterioration) [3, 14]: 53
- ADAS score increase [3, 15]: 14
- decrease of cognitive ability in the ADAS score [3, 16]: 9
